Laboratory results from ChEMBL document CHEMBL5728605, “Aromatic acetylene or aromatic ethylene compound, intermediate, preparation method, pharmaceutical composition and use thereof” (2021).

Biological target: Programmed cell death protein 1/Programmed cell death 1 ligand 1 (Homo sapiens, UniProt Q15116+Q9NZQ7)
Assay: Homogeneous Time-Resolved Fluorescence (HTRF) Binding Assay: 1. The compound was formulated to 10 concentrations with a 3-fold gradient with 100% DMSO.2. The solution of the compound in DMSO was added to Dilute Buffer, mixed thoroughly, then transferred to a 96-well plate.3. PD-L1 was diluted with Dilute Buffer, then added to the above 96-well plate.4. PD-1 was diluted with Dilute Buffer and added to the above 96-well plate, which was then incubated at room temperature for 30 minutes.5. A portion of anti-tag1-Eu and a portion of anti-tag2-XL665 were added to Detection Buffer, mixed thoroughly and transferred to the above 96-well plate.6. The mixture in the above 96-well plate was incubated at room temperature for 1 to 24 hours.7. HTRF values were read with Envision.
Type: protein-complex assay

Sequence of Programmed cell death protein 1/Programmed cell death 1 ligand 1 (Q15116 whole entry): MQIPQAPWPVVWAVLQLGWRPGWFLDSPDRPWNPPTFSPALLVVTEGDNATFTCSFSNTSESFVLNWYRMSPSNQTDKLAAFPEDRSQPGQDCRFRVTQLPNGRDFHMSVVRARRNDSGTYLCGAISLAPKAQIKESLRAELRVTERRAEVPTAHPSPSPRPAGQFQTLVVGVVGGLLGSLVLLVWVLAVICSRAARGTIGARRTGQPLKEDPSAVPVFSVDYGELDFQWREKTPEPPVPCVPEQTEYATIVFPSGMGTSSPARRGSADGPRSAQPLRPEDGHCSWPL
Sequence of Programmed cell death protein 1/Programmed cell death 1 ligand 1 (Q9NZQ7 whole entry): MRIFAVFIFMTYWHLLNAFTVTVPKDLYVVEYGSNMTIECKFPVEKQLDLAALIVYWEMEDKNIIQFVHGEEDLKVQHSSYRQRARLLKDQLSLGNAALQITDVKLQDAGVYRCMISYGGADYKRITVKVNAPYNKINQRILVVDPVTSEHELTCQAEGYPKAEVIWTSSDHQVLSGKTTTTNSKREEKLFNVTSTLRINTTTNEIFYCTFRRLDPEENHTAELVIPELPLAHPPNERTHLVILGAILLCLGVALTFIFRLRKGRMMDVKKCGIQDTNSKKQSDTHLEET

SMILES | IC50 [nM]
COc1cc(/C=C/c2cccc(-c3ccccc3)c2C)cc(OC)c1CN1CCCC[C@H]1C(=O)O | 60
COc1cc(/C=C/c2cccc(-c3ccccc3)c2C)cc(OC)c1CN[C@@H](CO)C(=O)O | 50
COc1cc(/C=C/c2cccc(-c3ccccc3)c2C)cc(OC)c1CN[C@@H](C)C(=O)O | 170
COc1cc(/C=C/c2cccc(-c3ccccc3)c2C)cc(OC)c1CN[C@H](CO)C(=O)O | 80
